Assay results from PubChem BioAssay AID812 (SRMLSC, 2007).
Calls of active or inactive are those of the source. How the calls were made is not given here.

Test system: Saccharomyces cerevisiae lifespan extension, no nicotinamide
Experiment: yeast lifespan extension without nicotinamide, confirmation, yeast lifespan extension project, S. cerevisiae (AID 812);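 further: growth read as optical density after 42 hours of incubation at 30C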

EC50, inactive:
COc1ccccc1C(=O)Oc1cc(N)n(S(=O)(=O)c2ccc(C)cc2)n1 > 40 µM
O=C1CC(c2ccccc2)CC(O)=C1C=NCCN1CCNCC1 (stereo not given) > 40 µM
CC(=O)Nc1ccc(C(=O)CSc2nnc(-c3ccc(O)cc3)n2CC2CCCO2)cc1 (stereo not given) > 40 µM
CCCCC(CC)Cn1c2nc3ccccc3nc2c2c(=N)oc(C)nc21 (stereo not given) > 40 µM
Nc1sc(-c2ccccc2)cc1C(=O)O > 40 µM
CN(C)c1ccc(S(=O)(=O)c2ccc(Cl)cc2)cc1 > 40 µM
O=C1ON=C(c2ccccc2)/C1=C/c1ccc(-c2ccccc2[N+](=O)[O-])o1 > 40 µM
CCCCC(=Nc1ccccc1OC)C1=C(O)CC(c2ccccc2)CC1=O (stereo not given) > 40 µM
O=C(NCc1cccnc1)c1ccc(S(=O)(=O)N2CCCCC2)cc1 > 40 µM
Cc1ccc(CNc2nc3ccccc3s2)s1 > 40 µM
C=C(C)CN(CC)C(=O)COc1ccc(S(=O)(=O)Nc2ccc(OC)cc2)cc1 > 40 µM
COn1c(SC2CCCCC2)nc2ccccc2c1=O > 40 µM
COc1ccc(/C=C/C(=O)C2C(=O)C=C(C)OC2=O)cc1O (stereo not given) > 40 µM
O=c1cc(O)c2c(=O)n(-c3ccccc3)c3c(c2o1)CCCCC3 > 40 µM
Cn1nnnc1SCCNCC#Cc1ccccc1 > 40 µM
Cc1ccc(OCC(=O)c2c(O)c3ccccc3oc2=O)cc1C > 40 µM
CCCc1cc(=O)oc2cc(C)c(CN3CCCC3)c(O)c12 > 40 µM
O=C(N/N=C/c1cccc(F)c1)c1c(O)c2ccccc2[nH]c1=O > 40 µM
O=C(NCc1ccco1)c1cc(C(=O)C2CCCCC2)c[nH]1 > 40 µM
CCOc1cc(Br)c(Br)c(C=Nc2ccc(NC(C)=O)cc2)c1O > 40 µM
O=C(NCc1ccc(Cl)cc1)c1ccccc1CCc1ccccc1 > 40 µM
CCSc1nnc(NC(=O)CSc2nc(C)cc(C)n2)s1 > 40 µM
CC1(C)CC2c3cccc(C(=O)O)c3C(=O)N2c2c1ccc1ccccc21 (stereo not given) > 40 µM
CC1(C)CC(=O)C(C(=O)Cc2ccccc2[N+](=O)[O-])C(=O)C1 > 40 µM
COC(=O)C1=C(N)OC2=C(C(=O)CC(C)(C)C2)C1c1cccs1 (stereo not given) > 40 µM
O=C(Oc1cc(=O)n2ccccc2n1)c1ccccc1 > 40 µM
C=C(C(=O)c1ccccc1)C(C)CC(=O)c1ccccc1 (stereo not given) > 40 µM
CCOC(=O)Cc1csc(NC(=O)c2c(O)c3ccccc3n(CC(C)C)c2=O)n1 > 40 µM
CCOC(=O)C1=C(C)Nc2nc(=S)[nH]n2C1c1ccc(Cl)cc1 (stereo not given) > 40 µM
Fc1cccc2sc(Nc3nnc(-c4ccco4)o3)nc12 > 40 µM
